According to patent publication US7491819B1 (priority 2004, dated 2009):
pIC50: −log10 of the molar value.

biological target: T1, HIV-integrase (Human immunodeficiency virus type 1 group M subtype B, UniProt P12497); assay: HIV-Integrase Inhibition Activity (SPA bead strand-transfer assay); type: biochemical; conditions: Table 1; read-out: Activity (HIV-integrase inhibition, IC50 class)
T1 construct: Recombinant integrase (0.26 ng) was incubated with the beads
Summary of the method: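 Biotin-labelled substrate DNA (5 pmole) bound to streptavidin SPA beads, preloaded with recombinant integrase (0.26 ng) for 90 min at 37° C, then washed. Inhibitors and 0.1 fmol P33-labelled target DNA added; reaction stopped with 10 mM EDTA. Integration read as scintillation CPM.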

| Structure (SMILES) | pIC50 |
| --- | --- |
| Cc1cnc(CNC(=O)c2nc3n(c(=O)c2O)CCOC3(C)C)cn1 [Example 142, Pyrimido[2,1-c][1,4]oxazine-2-carboxamide, 4,6,7,9-tetrahydro-3-hydroxy-9,9-dimethyl-N-[(5-methylpyrazinyl)methyl]-4-oxo-] | 7.00 to 8.70 |
| CC1(C)OCCn2c1nc(C(=O)NCc1cccc3ccsc13)c(O)c2=O [Example 138, Pyrimido[2,1-c][1,4]oxazine-2-carboxamide, N-(benzo[b]thien-7-ylmethyl)-4,6,7,9-tetrahydro-3-hydroxy-9,9-dimethyl-4-oxo-] | 7.00 to 8.70 |
| CCC1(CC)OCCn2c1nc(C(=O)NCc1ccc(F)c(C)c1)c(O)c2=O [Example 43] | 7.00 to 8.70 |
| CC1(C)OCCn2c1nc(C(=O)NCc1cc(Cl)ccc1Cl)c(O)c2=O [Example 228, Pyrimido[2,1-c][1,4]oxazine-2-carboxamide, N-[(2,5-dichlorophenyl)methyl]-4,6,7,9-tetrahydro-3-hydroxy-9,9-dimethyl-4-oxo-] | 7.00 to 8.70 |
| CCC1(CC)OCCn2c1nc(C(=O)NCc1ccccc1N1CCCCS1(=O)=O)c(O)c2=O [Example 207, Pyrimido[2,1-c][1,4]oxazine-2-carboxamide, 4,6,7,9-tetrahydro-3-hydroxy-9,9-diethyl-4-oxo-N-[[2-(tetrahydro-1,1-dioxido-2H-1,2-thiazin-2-yl)phenyl]methyl]] | 7.00 to 8.70 |
| Cc1c(Cl)cccc1CNC(=O)c1nc2n(c(=O)c1O)CCOC2(C)C [Example 236, Pyrimido[2,1-c][1,4]oxazine-2-carboxamide, N-[(3-chloro-2-methylphenyl)methyl]-4,6,7,9-tetrahydro-3-hydroxy-9,9-dimethyl-4-oxo-] | 7.00 to 8.70 |
| CC1(C)OCCn2c1nc(C(=O)NCc1ccccc1-c1cccc(C(N)=O)c1)c(O)c2=O [Example 174, Pyrimido[2,1-c][1,4]oxazine-2-carboxamide, N-[[3′-(aminocarbonyl)[1,1′-biphenyl]-2-yl]methyl]-4,6,7,9-tetrahydro-3-hydroxy-9,9-dimethyl-4-oxo-] | 7.00 to 8.70 |
| CC1(C)OCCn2c1nc(C(=O)NCc1cccc(F)c1N1CCCCS1(=O)=O)c(O)c2=O [Example 55, Pyrimido[2,1-c][1,4]oxazine-2-carboxamide, N-[[3-fluoro-2-(tetrahydro-1,1-dioxido-2H-1,2-thiazin-2-yl)phenyl]methyl]-4,6,7,9-tetrahydro-3-hydroxy-9,9-dimethyl-4-oxo-] | 7.00 to 8.70 |
| CNS(=O)(=O)c1cc(F)ccc1CNC(=O)c1nc2n(c(=O)c1O)CCOC2(C)C [Example 109, Pyrimido[2,1-c][1,4]oxazine-2-carboxamide, N-[[4-fluoro-2-[(methylamino)sulfonyl]phenyl]methyl]-4,6,7,9-tetrahydro-3-hydroxy-9,9-dimethyl-4-oxo-] | 7.00 to 8.70 |
| CC1(C)OCCCn2c1nc(C(=O)NCc1ccc(F)cc1-n1cncn1)c(O)c2=O [Example 117, 6H-Pyrimido[2,1-c][1,4]oxazepine-2-carboxamide, N-[[4-fluoro-2-(1H-1,2,4-triazol-1-yl)phenyl]methyl]-4,7,8,10-tetrahydro-3-hydroxy-10,10-dimethyl-4-oxo-] | 7.00 to 8.70 |
| CC1(C)OCCn2c1nc(C(=O)NCc1ccc(F)cc1I)c(O)c2=O [Example 73, Pyrimido[2,1-c][1,4]oxazine-2-carboxamide, N-[(4-fluoro-2-iodophenyl)methyl]-4,6,7,9-tetrahydro-3-hydroxy-9,9-dimethyl-4-oxo-] | 7.00 to 8.70 |
| CN(C)CCNC(=O)c1ncn(-c2cc(F)ccc2CNC(=O)c2nc3n(c(=O)c2O)CCOC3(C)C)n1 [Example 70, Pyrimido[2,1-c][1,4]oxazine-2-carboxamide, N-[[2-[3-[[[2-(dimethylamino)ethyl]amino]carbonyl]-1H-1,2,4-triazol-1-yl]-4-fluorophenyl]methyl]-4,6,7,9-tetrahydro-3-hydroxy-9,9-dimethyl-4-oxo-] | 7.00 to 8.70 |
| Cc1nnc(Nc2cc(F)ccc2CNC(=O)c2nc3n(c(=O)c2O)CCOC3(C)C)s1 [Example 116, Pyrimido[2,1-c][1,4]oxazine-2-carboxamide, N-[[4-fluoro-2-[(5-methyl-1,3,4-thiadiazol-2-yl)amino]phenyl]methyl]-4,6,7,9-tetrahydro-3-hydroxy-9,9-dimethyl-4-oxo-] | 7.00 to 8.70 |
| CC1(C)OCCn2c1nc(C(=O)NCc1ccccc1N1CCOC1=O)c(O)c2=O [Example 122, Pyrimido[2,1-c][1,4]oxazine-2-carboxamide, 4,6,7,9-tetrahydro-3-hydroxy-9,9-dimethyl-4-oxo-N-[[2-(2-oxo-3-oxazolidinyl)phenyl]methyl]-] | 7.00 to 8.70 |
| CC1(C)OCCn2c1nc(C(=O)NCc1ccc(N3CCOCC3)cc1F)c(O)c2=O [Example 24, Pyrimido[2,1-c][1,4]oxazine-2-carboxamide, N-[[2-fluoro-4-(4-morpholinyl)phenyl]methyl]-4,6,7,9-tetrahydro-3-hydroxy-9,9-dimethyl-4-oxo-] | 6.00 to 7.00 |
| Cc1ncnn1-c1cc(F)ccc1CNC(=O)c1nc2n(c(=O)c1O)CCOC2(C)C [Example 82, Pyrimido[2,1-c][1,4]oxazine-2-carboxamide, N-[[4-fluoro-2-(5-methyl-1H-1,2,4-triazol-1-yl)phenyl]methyl]-4,6,7,9-tetrahydro-3-hydroxy-9,9-dimethyl-4-oxo-] | 7.00 to 8.70 |
| CC1(C)OCCn2c1nc(C(=O)NCc1ccc(Cl)cc1F)c(O)c2=O [Example 277, Pyrimido[2,1-c][1,4]oxazine-2-carboxamide, N-[(4-chloro-2-fluorophenyl)methyl]-4,6,7,9-tetrahydro-3-hydroxy-9,9-dimethyl-4-oxo-] | 7.00 to 8.70 |
| CC1(C)OCCn2c1nc(C(=O)NCc1ccc(F)cc1-c1ccc(=O)[nH]c1)c(O)c2=O [Example 79, Pyrimido[2,1-c][1,4]oxazine-2-carboxamide, N-[[2-(1,6-dihydro-6-oxo-3-pyridinyl)-4-fluorophenyl]methyl]-4,6,7,9-tetrahydro-3-hydroxy-9,9-dim ethyl-4-oxo-] | 7.00 to 8.70 |
| CNC(=O)COc1cc(F)ccc1CNC(=O)c1nc2n(c(=O)c1O)CCOC2(C)C [Example 97, Pyrimido[2,1-c][1,4]oxazine-2-carboxamide, N-[[4-fluoro-2-[2-(methylamino)-2-oxoethoxy]phenyl]methyl]-4,6,7,9-tetrahydro-3-hydroxy-9,9-dimethyl-4-oxo-] | 7.00 to 8.70 |
| CC1(C)OCCn2c1nc(C(=O)NCc1ccc(F)cc1-c1cc(Br)no1)c(O)c2=O [Example 212, Pyrimido[2,1-c][1,4]oxazine-2-carboxamide, N-[[2-(3-bromo-5-isoxazolyl)-4-fluorophenyl]methyl]-4,6,7,9-tetrahydro-3-hydroxy-9,9-dimethyl-4-oxo-] | 7.00 to 8.70 |
| COc1ccc(OC)c(CNC(=O)c2nc3n(c(=O)c2O)CCOC3(C)C)c1 [Example 235, Pyrimido[2,1-c][1,4]oxazine-2-carboxamide, N-[(2,5-dimethoxyphenyl)methyl]-4,6,7,9-tetrahydro-3-hydroxy-9,9-dimethyl-4-oxo-] | 7.00 to 8.70 |
| CC1(C)OCCn2c1nc(C(=O)NCc1ccc(F)cc1-c1csnn1)c(O)c2=O [Example 84, Pyrimido[2,1-c][1,4]oxazine-2-carboxamide, N-[[4-fluoro-2-(1,2,3-thiadiazol-4-yl)phenyl]methyl]-4,6,7,9-tetrahydro-3-hydroxy-9,9-dimethyl-4-oxo-] | 7.00 to 8.70 |
| CCOc1ccc(-c2ccccc2CNC(=O)c2nc3n(c(=O)c2O)CCOC3(C)C)cn1 [Example 199, Pyrimido[2,1-c][1,4]oxazine-2-carboxamide, N-[[2-(6-ethoxy-3-pyridinyl)phenyl]methyl]-4,6,7,9-tetrahydro-3-hydroxy-9,9-dimethyl-4-oxo-] | 7.00 to 8.70 |
| CC1(C)OCCCn2c1nc(C(=O)NCc1ccccc1N1CCCCS1(=O)=O)c(O)c2=O [Example 206, 6H-pyrimido[2,1-c][1,4]oxazepine-2-carboxamide, 4,7,8,10-tetrahydro-3-hydroxy-10,10-dimethyl-4-oxo-N-[[2-(tetrahydro-1,1-dioxido-2H-1,2-thiazin-2-yl)phenyl]methyl]-] | 7.00 to 8.70 |
| CC(=O)Nc1cc(F)ccc1CNC(=O)c1nc2n(c(=O)c1O)CCOC2(C)C [Example 135, Pyrimido[2,1-c][1,4]oxazine-2-carboxamide, N-[[2-(acetylamino)-4-fluorophenyl]methyl]-4,6,7,9-tetrahydro-3-hydroxy-9,9-dimethyl-4-oxo-] | 7.00 to 8.70 |
| Cc1cc(-c2ccccc2CNC(=O)c2nc3n(c(=O)c2O)CCOC3(C)C)cnc1F [Example 192, Pyrimido[2,1-c][1,4]oxazine-2-carboxamide, N-[[2-(6-fluoro-5-methyl-3-pyridinyl)phenyl]methyl]-4,6,7,9-tetrahydro-3-hydroxy-9,9-dimethyl-4-oxo-] | 7.00 to 8.70 |
| CC1(C)OCCn2c1nc(C(=O)NCc1ccccc1-c1cccc3cccnc13)c(O)c2=O [Example 148, Pyrimido[2,1-c][1,4]oxazine-2-carboxamide, 4,6,7,9-tetrahydro-3-hydroxy-9,9-dimethyl-4-oxo-N-[[2-(8-quinolinyl)phenyl]methyl]-] | 6.00 to 7.00 |
| Cc1ccc(CNC(=O)c2nc3n(c(=O)c2O)CCOC3(C)C)cc1Cl [Example 231, Pyrimido[2,1-c][1,4]oxazine-2-carboxamide, N-[(3-chloro-4-methylphenyl)methyl]-4,6,7,9-tetrahydro-3-hydroxy-9,9-dimethyl-4-oxo-] | 7.00 to 8.70 |
| CC(C)(C)OC(=O)N1CCN(c2ccccc2CNC(=O)c2nc3n(c(=O)c2O)CCOC3(C)C)CC1 [Example 261, 1-piperazinecarboxylic acid, 4-[2-[[[(4,6,7,9-tetrahydro-3-hydroxy-9,9-dimethyl-4-oxopyrimido[2,1-c][1,4]oxazin-2-yl)carbonyl]amino]methyl]phenyl]-, 1,1-dimethylethyl ester] | 7.00 to 8.70 |
| Cc1ccc(C)c(CNC(=O)c2nc3n(c(=O)c2O)CCOC3(C)C)c1 [Example 269, Pyrimido[2,1-c][1,4]oxazine-2-carboxamide, N-[(2,5-dimethylphenyl)methyl]-4,6,7,9-tetrahydro-3-hydroxy-9,9-dimethyl-4-oxo-] | 7.00 to 8.70 |
